In patent US20100152244A1, “SELF-EMULSIFYING FORMULATION OF TIPRANAVIR FOR ORAL ADMINISTRATION” (BOEHRINGER INGELHEIM INTERNATIONAL GMBH, priority 2008, published 2010):

Assay: lipophilicity (Log P)
Format: physicochemical
From the text: One possible reason for the self emulsifying behavior of the Capmul-free formulation is that tipranavir which is a highly lipophilic compound (Log P=6) once dissolved serves as a lipid core in this pre-concentrated microemulsion system. However, this rationale is only a theory and it was certainly not available to serve as guidance and motivation to us when we set about to solve the instability problem posed by the Capmul-containing formulation.

logP: 6
SMILES: CCC[C@@]1(CCc2ccccc2)CC(O)=C([C@H](CC)c2cccc(NS(=O)(=O)c3ccc(C(F)(F)F)cn3)c2)C(=O)O1 [tipranavir, N-[3-[(1R)-1-[(6R)-5,6-dihydro-4-hydroxy-2-oxo-6-(2-phenylethyl)-6-propyl-2H-pyran-3-yl]propyl]phenyl]-5-(trifluoromethyl)-2-pyridinesulfonamide]
